Laboratory results taken from patent US10844049B2, “GLP-1R agonists and uses thereof” (QILU REGOR THERAPEUTICS INC., priority 2018, dated 2020).

Legend:
Format in all cases: cell-based
GLP1R [1] = target: T1, GLP1R (Homo sapiens, UniProt P43220); assay: GLP1R cAMP assay, CHO cells stably expressing human GLP-1R; settings: CHO cells stably expressing GLP-1R, read-out: CHO cAMP stable EC50
Protocol: GLP-1R-mediated agonist activity was determined with a cell-based functional assay utilizing an HTRF (Homogeneous Time-Resolved Fluorescence) cAMP detection kit (cAMP Dynamic 2 Assay Kit; CisBio cat #62AM4PEC) that measures cAMP levels in the cell. The method is a competitive immunoassay between native cAMP produced by the cells and exogenous cAMP labeled with the dye d2. The tracer binding is visualized by a mAb anti-cAMP labeled with Cryptate. The specific signal (i.e., energy transfer) is inversely proportional to the concentration of cAMP in either standard or experimental sample.
Varying concentrations of each compound to be tested (in DMSO) were diluted in DMSO to obtain 200× compound working solution first and then 50 nl compounds were added to a white 384-well assay plate (Greiner 784075) with ECHO. The final DMSO concentration was 0.5%. The compound concentration range may be adjusted at any time.
Cells were removed from cryopreservation, re-suspended in 5 mL of Dulbecco's Phosphate Buffered Saline (DPBS-Sigma Cat # D8537) and centrifuged at 900 g for 5 min at 22° C. The cell pellet was then re-suspended in 1 mL of assay buffer [DPBS with 500 μM IBMX (Sigma #15879) and 0.1% BSA (Sigma # A1933). IBMX and BSA were freshly added on the day of assay]. A 10 μL sample of the cell suspension was counted on an Invitrogen Countess II to determine cell viability and cell count per mL. The remaining cell suspension was then adjusted with assay buffer to deliver 1000 viable cells per well using a Matrix Combi Multidrop reagent dispenser. 10 μL cell suspensions were added to each well of the assay plate which already contains compound. The plate was sealed and incubated at 37° C. with 5% CO2 for 30 minutes.
Following the 30 minute incubation, 5 μL of labeled d2 cAMP and 5 μL of anti-cAMP antibody (both diluted 1:20 in cell lysis buffer; as described in the manufacturer's assay protocol) were added to each well of the assay plate. The plates w ere then incubated at room temperature and after 60 minutes, changes in the HTRF signal were read with an Envision multi-label plate reader using excitation of 330 nm and emissions of 615 and 665 nm. Raw data were converted to nM cAMP by interpolation from a cAMP standard curve (as described in the manufacturer's assay protocol) and the percent effect was determined relative to a saturating concentration of the full agonist GLP-17-37 (10 nM) included on each plate. EC50 determinations were made from agonist dose-response curves analyzed with a curve fitting program using a 4-parameter logistic dose response equation. […]

GLP1R [2] = target: T1, GLP1R; assay: β-Arrestin-mediated GLP1R internalization assay (PathHunter engineered U2OS cells); design: host or cells: PathHunter engineered U2OS cells; settings: averaged Bmax, percentage of control GLP-1 (7-37), highest concentration tested
Source text: A similar assay can also be used to assess the extent of signal attenuation due to GLP-1R internalization (the β-Arrestin Internalization Assay). In this assay, activated GLP1R Internalization cells were engineered to co-express an untagged GLP1R, Enzyme Acceptor (EA) tagged β-Arrestin, and a ProLink™ (PK) tag localized to the endosomes. Activation of the GLP1R induces β-Arrestin recruitment, which leads to internalization of the Receptor/Arrestin-EA complex in PK-tagged endosomes. This forces complementation of the two β-galactosidase enzyme fragments (EA and PK) to form a functional enzyme that hydrolyzes substrate to generate a chemiluminescent signal. These cells have been modified to prevent long term propagation and expansion using a proprietary compound that has no apparent effect on assay performance.
Specifically, PathHunter engineered U2OS cells from the assay kit (Cat #93-0724E3CP0L) were plated at a density of 2000 cells/20 μL/well in a 384-well white/clear bottom plates (Greiner Cat #781098). Frozen cells were quickly thawed and 10 mL of cell plating medium (provided by the kit) was added to thawed cells. Cells were stored in a 37° C. incubator and kept for approximately 48 hours until ready for the assay.
Reference and test compounds were dissolved in 100% DMSO. 5× concentration of an agonist was prepared in serum free DMEM (Thermo Cat #11965). 5 μL of this solution was added to 20 μL cell medium in assay plate for a final top concentration of 10 μM. Plates were incubated at 37° C. for 180 min.
Following 180 min incubation, detection reagents were made up by combining 1 part Galacton Star Substrate with 5 parts Emerald II™ Solution, and 19 parts of PathHunter Cell Assay Buffer, respectively. 12.5 μL detection reagent was added to each well. The plates were then incubated at room temperature for 60 min. Plates were then read on Envision for 0.1 sec/well.
EC50 determinations were made from agonist dose-response curves analyzed with a curve fitting program using a 4-parameter logistic dose response equation.

GLP1R [3] = target: T1, GLP1R; assay: GLP1R cAMP HTRF assay, HEK293/GLP-1R/CRE/Luc (HEK293T cells); settings: read-out: EC50
Method in brief: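 cAMP accumulation via HTRF after 30 min, 37 °C exposure of 1000 receptor-expressing cells/well to compound (0.5% DMSO final) in IBMX (500 μM)/0.1% BSA DPBS.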

T1 sequence (P43220 24-463): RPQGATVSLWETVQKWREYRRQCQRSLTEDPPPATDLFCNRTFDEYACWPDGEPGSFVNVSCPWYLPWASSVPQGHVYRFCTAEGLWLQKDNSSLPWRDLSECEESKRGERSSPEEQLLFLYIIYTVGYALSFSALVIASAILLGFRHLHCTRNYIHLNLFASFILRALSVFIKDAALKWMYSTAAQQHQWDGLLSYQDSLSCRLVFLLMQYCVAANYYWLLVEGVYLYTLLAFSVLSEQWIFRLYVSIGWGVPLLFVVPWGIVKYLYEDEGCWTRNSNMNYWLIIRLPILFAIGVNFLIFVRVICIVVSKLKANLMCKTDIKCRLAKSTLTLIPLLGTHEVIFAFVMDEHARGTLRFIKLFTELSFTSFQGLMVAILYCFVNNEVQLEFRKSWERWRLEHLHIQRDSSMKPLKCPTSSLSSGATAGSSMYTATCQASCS

| EC50 (GLP1R [1]) | Bmax (POC) (GLP1R [2]) | EC50 (GLP1R [3]) | SMILES |
| --- | --- | --- | --- |
| ≤ 15 nM | 20.1 POC | ≤ 15 nM | N#Cc1ccc(COc2cccc(C3=CCN(Cc4nc5ccc(C(=O)O)cc5n4C[C@@H]4CCO4)CC3)n2)c(F)c1 [Compound 19, (S)-2-((4-(6-(4-cyano-2-fluorobenzyloxy)pyridin-2-yl)-5,6-dihydropyridin-1(2H)-yl)methyl)-1-(oxetan-2-ylmethyl)-1 h-benzo[d]imidazole-6-carboxylic add] |
| ≤ 1000 nM | 6.64 ± 1.55 POC | ≤ 15 nM | O=C(O)c1ccc2nc(CN3CCC(c4cncc(OCc5ccc(Cl)cc5F)n4)CC3)n(C[C@@H]3CCO3)c2c1 [Compound 21, (S)-2-((4-(6-(4-chloro-2-fluorobenzyloxy)pyrazin-2-yl)piperidin-1-yl)methyl)-1-(oxetan-2-ylmethyl)-1 h-benzo[d]imidazole-6-carboxylic acid] |
| ≤ 150 nM | 25.9 ± 1.24 POC | ≤ 15 nM | O=C(O)c1ccc2nc(CN3CC=C(c4ccc(F)c(OCc5ccc(Cl)cc5F)c4)CC3)n(C[C@@H]3CCO3)c2c1 [Compound 29, (S)-2-((4-(3-((4-chloro-2-fluorobenzyl)oxy)-4-fluorophenyl)-3,6-dihydropyridin-1(2H)-yl)methyl)-1-(oxetan-2-ylmethyl)-1 h-benzo[d]imidazole-6-carboxylic acid] |
| ≤ 150 nM | 21.3 ± 3.47 POC | ≤ 15 nM | O=C(O)c1ccc2nc(CN3CCC(c4ccnc(OCc5ccc(Cl)cc5F)n4)CC3)n(C[C@@H]3CCO3)c2c1 [Compound 18, (S)-2-((4-(2-((4-chloro-2-fluorobenzyl)oxy)pyrimidin-4-yl)piperidin-1-yl)methyl)-1-(oxetan-2-ylmethyl)-1H-benzo[d]imidazole-6-carboxylic acid] |
